Test [1] has as its target T1, human recombinant AChE (Homo sapiens, UniProt P22303).
T1 construct: purchased Sigma-Aldrich Co. LLC C1682
The test is described as follows: biochemical. As to conditions: for inhibition at 200 µM: compound soluble in MeOH; for AChE %Inhibition of supernatant (MeOH): poorly soluble compound, methanol supernatant tested, nominal 200 µM. Here is the method: For five poorly soluble compounds, the methanol supernatants were tested. Ellman’s colorimetric analysis is based on the breakdown of acetylthiocholine (ATCI) by AChE to thiocholine and acetic acid. Ellman’s reagent in turn reacts with the thiol group of thiocholine resulting in a yellow color indicating the extent of enzymatic activity. […] In vitro AChE inhibitory activity was studied using the colorimetric method of Ellman using human recombinant AChE enzyme. To a 96-well microplate, test solutions were applied along with 1 mg/mL bovine serum albumin, 0.5 mM 5,5-dithiobis-(2-nitro-benzoic acid), and 0.5 mM acetylthiocholine iodide. […] Experiments were conducted in triplicate.
(§1) Data analysis was performed as reported previously. […] During analysis, traces were baseline subtracted and responses to individual applications quantified as peak-current amplitudes. Statistical calculations were performed using GraphPad Prism 7 (GraphPad Software, GraphPad, San Diego, CA, USA). Activation of the α7 nAChR was calculated as a percentage of Emax response to ACh. For evaluation of the inhibitory activity, the percentage of remaining peak-current amplitudes relative to that of the AChcontrol (EC20) application was calculated. AChE inhibition data were analyzed using GraphPad Prism 7. Absorption readings from the AChE inhibition assay were plotted versus time and linear regression was performed. […] Data were fitted with the slope set to 1 and remaining current amplitude at infinitely high compound concentrations set to 0.

Test [2] has as its target T2, human α7 nAChR (Homo sapiens, UniProt P36544).
T2 construct: expressed in transfected cells; host or cells: Xenopus laevis oocytes (cRNA injection)
In words: α7 nAChR direct activation (agonist test), two-electrode voltage-clamp electrophysiology in Xenopus oocytes. As to conditions: for activation at 200 µM: read-out: α7 nAChR %Activation. The class given is cell-based. Here is the method:
(§2) Compounds were tested for direct activation of the α7 nAChR in a 0.2–200 µM concentration range. Compounds displaying less than 1% direct activation were further evaluated at 100 µM for their ability to alter currents evoked by 30 µM ACh.
(§3) Xenopus laevis oocytes were obtained as described previously, briefly, ovary lobes were removed by surgical incision, sliced into small pieces and defolliculated by collagenase treatment. […] Stage V and VI oocytes were injected with a total of ~25 ng of cRNA encoding human α7 nAChR with RIC3 (in 5:1 ratio), a protein enhancing the expression of the receptor. Injected oocytes were incubated for 3–5 days at 18 °C in a saline solution (96 mM NaCl, 2 mM KCl, 1 mM MgCl2, 1.8 mM CaCl2, 5 mM HEPES (hemisodium, pH 7.4)) supplemented with 2.5 mM sodium pyruvate, 0.5 mM theophylline, and 50 µM gentamycin.
(§4) Electrophysiological recordings from Xenopus laevis oocytes were performed using the two-electrode voltage-clamp technique as described previously. Briefly, oocytes were placed in a custom-built recording chamber and continuously perfused with a saline solution. The saline solution contained 96 mM NaCl, 2 mM KCl, 1 mM MgCl2, 1.8 mM CaCl2, 5 mM HEPES (hemisodium, pH 7.4). Pipettes were backfilled with 3 M KCl and open-pipette resistances ranged from 0.3 to 1.5 MΩ when submerged in the saline solution. Oocytes were voltage clamped at a holding potential of −60 mV using an Axon Geneclamp 500B amplifier (Molecular Devices, LLC, San Jose, CA, USA). Rapid solution exchange in the oocyte vicinity (order of a few seconds) was ensured by application through a 1.5 mm diameter capillary tube placed approximately 2 mm from the oocyte as described previously. The solution flow rate through the capillary was 2.0 mL/min. […] Thereafter, test compounds in increasing concentration were applied (25 s), the maximal tested concentration was 200 µM. A wash period of at least 2 min was kept between each application. […] In these experiments, 10 and 100 µM concentration of a test compound was co-applied with 30 µM ACh. Peak current amplitudes were normalized with respect to the amplitude of current elicited by 3 mM or 30 µM ACh for the agonist and antagonist test, respectively. All experiments were conducted at least in triplicate.
as §1
A general note: Two-electrode voltage clamp is typically applied to oocytes expressing channels or transporters.

In test [3] the target is T2, human α7 nAChR. The test is described as follows: α7 nAChR inhibition of ACh-evoked currents (antagonist test), two-electrode voltage-clamp electrophysiology in Xenopus oocytes. The following applies: -60 mV. Format: cell-based. Here is the method: as §2, §3, §4, §1
For test [4], the system named is α7 nAChR. The following applies: cited from earlier work.
Setting [5] is: five to eight concentrations, read-out: AChE IC50.
Where [6] appears, read: 200 µM, normalized to 3 mM ACh response, -60 mV.
[7] abbreviates: 100 µM compound co-applied with 30 µM ACh, read-out: α7 nAChR %Inhibition.

“And” between values parts separate entries of the source, which are not always exact repeats. Identical values can stand only once. Like-named read-outs stand apart in the source and are kept apart here.

By inhibition is commonly meant the change of the read-out against control, counted positive when it falls.

T1 sequence (P22303 32-614): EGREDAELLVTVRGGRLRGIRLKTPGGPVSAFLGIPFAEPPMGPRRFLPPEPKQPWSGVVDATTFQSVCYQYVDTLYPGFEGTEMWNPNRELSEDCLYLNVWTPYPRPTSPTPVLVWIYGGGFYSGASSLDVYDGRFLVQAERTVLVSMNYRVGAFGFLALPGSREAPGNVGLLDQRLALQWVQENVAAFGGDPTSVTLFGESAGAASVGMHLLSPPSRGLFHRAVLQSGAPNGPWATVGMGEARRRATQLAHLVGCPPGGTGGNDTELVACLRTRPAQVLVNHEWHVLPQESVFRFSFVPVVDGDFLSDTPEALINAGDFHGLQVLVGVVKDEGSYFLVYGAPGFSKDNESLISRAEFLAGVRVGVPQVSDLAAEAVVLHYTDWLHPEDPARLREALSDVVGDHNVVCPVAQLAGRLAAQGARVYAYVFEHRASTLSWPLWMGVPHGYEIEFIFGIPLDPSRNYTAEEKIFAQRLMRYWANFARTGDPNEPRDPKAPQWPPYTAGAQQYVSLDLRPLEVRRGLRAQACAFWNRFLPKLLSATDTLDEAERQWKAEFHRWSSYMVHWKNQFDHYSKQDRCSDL
T2 sequence (P36544 23-502): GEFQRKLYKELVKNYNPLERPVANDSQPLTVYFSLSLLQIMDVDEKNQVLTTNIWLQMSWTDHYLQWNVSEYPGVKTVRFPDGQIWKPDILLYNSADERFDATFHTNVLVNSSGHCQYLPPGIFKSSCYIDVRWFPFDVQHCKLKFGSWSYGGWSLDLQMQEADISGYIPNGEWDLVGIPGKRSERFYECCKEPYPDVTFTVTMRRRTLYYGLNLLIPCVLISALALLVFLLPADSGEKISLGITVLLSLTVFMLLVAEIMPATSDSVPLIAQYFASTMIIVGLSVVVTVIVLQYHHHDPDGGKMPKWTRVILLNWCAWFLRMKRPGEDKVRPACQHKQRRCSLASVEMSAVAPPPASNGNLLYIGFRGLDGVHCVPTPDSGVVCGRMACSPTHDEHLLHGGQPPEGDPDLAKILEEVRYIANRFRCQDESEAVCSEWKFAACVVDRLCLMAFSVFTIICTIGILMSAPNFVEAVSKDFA

As to `CN(C)Cc1ccc(-c2ccc(N(C)C)nc2)nc1` [Compound 6], the inhibition at 200 µM in test [1] was determined as 76.1%. In test [1] (setting [5]), the IC50 amounted to 58.5 µM. For the same compound, the activation at 200 µM in test [2] (setting [6]) was determined as 0.4%. The inhibition at 100 µM in test [3] (setting [7]) turned out to be 47.2%.
`c1cc(-c2ccc(-c3ccc(CN4CCCC4)cn3)cc2)n[nH]1` [Compound 8]: the “AChE %Inhibition of supernatant (MeOH)” value in test [1] stood at 100%. Besides, the activation at 200 µM in test [2] (setting [6]) came out at 0.3%. The inhibition at 100 µM in test [3] (setting [7]) was 59%.
In the case of `O[C@@H]1c2ccc(-c3cccnc3)cc2OC[C@H]1N1CCCC1` [Compound 9], the “AChE %Inhibition of supernatant (MeOH)” value in test [1] is reported as 45.9 ± 3.8%. The activation at 200 µM in test [2] (setting [6]) was found to be 1%. The inhibition at 100 µM in test [3] (setting [7]) is 66.7%.
`O=C(Nc1cccc(CN2CCCCC2)c1)c1ccccc1F` [Compound 10]: the inhibition at 200 µM in test [1] was 90.8%. For the same compound, in test [1] (setting [5]), the IC50 amounted to 11.3 µM. Besides, in test [2] (setting [6]), the activation at 200 µM was 0.3%. In addition, the inhibition at 100 µM in test [3] (setting [7]) was found to be 85%.
On to `O=C(Nc1ccc(CN2CCCCC2)cc1)c1ccc(Cl)cc1` [Compound 11], for which, in test [1], the “AChE %Inhibition of supernatant (MeOH)” value is recorded as 100%. Besides, the activation at 200 µM in test [2] (setting [6]) was 0.7%. Also, the inhibition at 100 µM in test [3] (setting [7]) was 73.3%.
Regarding `O=c1[nH]c2ccccc2c(=O)n1-c1ccc(CN2CCCC2)cc1` [Compound 12], in test [1], the “AChE %Inhibition of supernatant (MeOH)” value was 63.7 ± 4.4%. In test [2] (setting [6]), the activation at 200 µM was determined as 0.3%. In addition, in test [3] (setting [7]), the inhibition at 100 µM amounted to 81.7%.
Consider `Cc1cccc(NC(=O)c2ccc(CN3CCCCCC3)cc2)c1C` [Compound 13], for which the inhibition at 200 µM in test [1] was found to be 82.5%. Moreover, the IC50 in test [1] (setting [5]) stood at 30.2 µM. In addition, the activation at 200 µM in test [2] (setting [6]) came out at 0.7%. In addition, the inhibition at 100 µM in test [3] (setting [7]) amounted to 68%.
The like results for `CC(=O)c1cccc(NC(=O)c2ccc(CN3CCCCC3)cc2)c1` [Compound 14] were, in that order, 100%, 1.1 µM, 0.3% and 60%.
With `O=C(Nc1cccc(CN2CCCC2)c1)C1=Cc2cc(Cl)ccc2OC1` [Compound 16], in test [1], the “AChE %Inhibition of supernatant (MeOH)” value was 100%. In addition, the activation at 200 µM in test [2] (setting [6]) was found to be 1%. Also, the inhibition at 100 µM in test [3] (setting [7]) was 90.7%.
`CN(C(=O)Cc1ccsc1)[C@H]1CCC[C@H](N2CCCC2)[C@H]1O` [Compound 17]: the inhibition at 200 µM in test [1] came out at 22.9%.
In the case of `CC(=O)c1cccc(NC(=O)c2ccc(CN3CCCCCC3)cc2)c1` [Compound 18], in test [1], the inhibition at 200 µM came out at 91.6%. Further, the IC50 in test [1] (setting [5]) worked out at 17.9 µM. In test [2] (setting [6]), the activation at 200 µM was 0.7%. For the same compound, in test [3] (setting [7]), the inhibition at 100 µM worked out at 68.7%.
Take `C[C@H]1CCCN(Cc2ccc(NC(=O)CCc3ccc(C#N)cc3)cc2)C1` [Compound 20]: in test [1], the inhibition at 200 µM came out at 86%. The IC50 in test [1] (setting [5]) worked out at 33.5 µM. In addition, in test [2] (setting [6]), the activation at 200 µM was 0.3%. Moreover, the inhibition at 100 µM in test [3] (setting [7]) came to 94.3%.
With `Nc1nc(-c2ccsc2)cc(N(Cc2ccccn2)Cc2ccccn2)n1` [Compound 44, N4,N4-bis[(pyridin-2-yl)methyl]-6-(thiophen-3-yl)pyrimidine-2,4-diamine], in test [4], the α7-pEC50 is 6.3.
As for `Cc1nnc2ncc(-c3ccc(C(C)N(C)C)cc3)cn12` (centres unmarked) [Ýmir-2 (7), N,N-dimethyl-1-(4-(3-methyl-[1,2,4]triazolo[4,3-a]pyrimidin-6-yl)phenyl)ethan-1-amine], the inhibition at 200 µM in test [1] stood at 98.4%. In addition, the IC50 in test [1] (setting [5]) was 2.58 µM. In addition, in test [2] (setting [6]), the “α7 nAChR %Activation” value was 7.0% and 7.0 ± 0.9%. In test [2], the activation at 200 µM was found to be 7 ± 0.9%.
Turning to `Cc1ccc2cc(NC(=O)NCCN3CCCC3)ccc2n1` [Ýmir-10 (15)], the inhibition at 200 µM in test [1] was determined as 66.6%. The IC50 in test [1] (setting [5]) is 115 µM. Besides, the “α7 nAChR %Activation” value in test [2] (setting [6]) is 2.3% and 2.3 ± 0.4%. In addition, in test [2], the activation at 200 µM turned out to be 2.3 ± 0.4%.
Consider `Cc1cc(F)ccc1S(=O)(=O)NCc1ccc(CN2CCCC2)cc1` [Ýmir-14 (19)], for which the inhibition at 200 µM in test [1] was 100%. Moreover, the IC50 in test [1] (setting [5]) came to 1.32 µM. For the same compound, the activation at 200 µM in test [2] (setting [6]) worked out at 0.7%. Also, the inhibition at 100 µM in test [3] (setting [7]) stood at 96%.
On to `O=C(Nc1nc(CN2CCCCC2)cs1)c1cc(O)nc2ccccc12` [Ýmir-16 (21)], for which the inhibition at 200 µM in test [1] is 87.7%. The results for the IC50 in test [1] (setting [5]) and in test [1] (read-out: AChE pIC50 ± SEM (converted)) were 7.76 µM and 7.94 µM, respectively. The activation at 200 µM in test [2] (setting [6]) is 0.3%. Besides, the “α7 nAChR %Inhibition” value in test [3] (100 µM compound co-applied with 30 µM ACh) was found to be 97.3 ± 1%. Besides, in test [3] (read-out: α7 nAChR %Inhibition, 100 µM compound co-applied with 30 µM ACh), the inhibition at 100 µM came to 97%.

These data come from paper PMC7355937, “Structure-Based Discovery of Dual-Target Hits for Acetylcholinesterase and the α7 Nicotinic Acetylcholine Receptors: In Silico Studies and In Vitro Confirmation” (Molecules, 2020).
